From US20230183774A1, “COLORIMETRIC ASSAY FOR HIGH THROUGHPUT, FACILE AND RAPID ANTIMICROBIAL SUSCEPTIBILITIES TESTING” (Georgia Tech Research Corporation, priority 2021, published 2023)
≈ marks a conversion by molar mass, not a printed value. Read-outs that look alike come from different tables or passages of the source.

Experiments:
Assay type in all cases: cell-based
[1] = tested on: E. coli sample (positive blood culture); assay: ChroMIC automated colorimetric MIC assay directly from positive blood culture; details: for MIC: Escherichia coli
Experimental: In order to prepare the contrast agent, sterile human whole blood (ZenBio, Research Triangle Park, N.C.) was stored at 4° C. and used within two weeks. […] For use as contrast, whole blood was diluted in sterile cation-adjusted Mueller Hinton broth (CAMHB; BD Biosciences, San Jose, Calif.) media (10% v/v).
Relating to an example colorimetric AST directly from positive blood culture —BacT/ALERT FA PLUS positive blood cultures were 500-fold diluted in CAMHB media and dispensed in the 96-well plate antibiotic panels. […] Final antibiotic concentrations ranged from approximately 0.03125 μg/mL to approximately 64 μg/mL along each row, with final dilution of blood cultures being 1000-fold. […] Wells H1, H9, and H10 are media-only negative controls, while wells H11 and H12 are no-antibiotic positive controls. […] ChroMIC ASTs were performed and compared (blinded) against both Vitek-2-determined MICs and vs. BMD. Each blood culture was also plated to retroactively determine inoculum size used.
Negative control wells with antibiotics and media only were allocated to ensure the sterility of media and antibiotics. Positive control wells were prepared to track bacterial growth without antibiotics and these controls were used in developing real-time automated analysis. After preparation of assays, the 96-well plates were covered with sterile sealing film (VWR International, Radnor, Pa.) and incubated at 37° C. for 18 hours with imaging as described below.
Example instruments used with the example colorimetric AST are disclosed herein. Four computer-controlled cameras (Raspberry Pi HQ) were connected to an ArduCam multicamera board in a Raspberry Pi 4B computer running the latest version of Raspian operating system. Within an incubator held at approximately 37° C., 96-well microtiter plates were held in 3D-printed holders, approximately 10 cm above the camera. A low distortion wide-angle lens was used to image microtiter plates from below, with LED illumination from above. Software collected images once every 15 minutes from each active camera over an 18-hour period. Images were analyzed both visually and by computer for red, green, and blue channel pixel intensities. Automated well detection was performed with OpenCV in python based on color value and the two most significant principal color components within each well were calculated and used to determine positive versus negative bacterial growth. […] SVM-derived probabilities were used to determine growth or no growth in each well. The left—most well in each row maintaining bright red color (no growth) was taken as the MIC.
ChroMIC assays were automated to acquire one image every 15 minutes over 18 hours. […] Wells can be automatically detected based on their color and the mean RGB color values can be taken from the average color of a 40×40 pixel area around each well centroid. Principal components using RGB values as input dimensions can be calculated for the wells in each image. […] Wells H1-H10 on each image and all wells (A1-H12) from the first hour (5 images—all before growth occurs) can be used as negative control wells. […] Since PCs are calculated for each image, all positive and negative controls are rotated into the current image PC space. A grid search can be performed to find the optimal SVM discriminant (FIG. 20B), and probabilities are used to assign growth (+) or no growth (−) for each well.
FIGS. 20-23 show aspects of automated real-time ChroMIC assay of an E. coli sample. An example of acquired images at different times (0 hours, 4 hours, 6 hours, 8 hours, 10 hours, 12 hours and 18 h) is shown in FIG. 19. […] This enables labels and MIC determinations for each antibiotic at each time point.

[2] = tested on: E. coli strain Mu890; assay: Rapid colorimetric AST in spiked human whole blood / blood culture medium (colour change, near IR absorbance); details: 37° C.; for Susceptibility of Mu890 (colorimetric assay / near IR absorption): CLSI susceptible and resistant breakpoints, 2.55 × 10^4 CFU/mL in wells, 24 hours; for Susceptibility of Mu890 (colour change of blood): rapid colorimetric AST, CLSI breakpoint concentrations, 96-well plate, up to 24 hours incubation
Text: (§1) The antibiotics concentration and the initial concentration of bacterial cells in the wells shown in FIG. 8A are tabulated in Table 3.

[3] = tested on: E. coli strain Mu890; assay: Standard broth microdilution (BMD), turbidity; details: validation of near IR experiment, 6×10^6 CFU/mL per well
Experimental: This color change results from the growth and presence of viable bacteria. When bacteria are resistant to the given antibiotic concentration, the color change is clearly observed. […] Results were validated by comparing with the gold standard BMD (FIGS. 4A and 4B). The gold standard BDM requires 16 to 24 hours incubation of plates after isolation of pure bacteria from positive blood cultures. In this case, the BMD was done by subculturing a pure colony of Mu890 in 4 mL CAMHB for 3 hours, followed by OD-600 adjustment such that the final concentration of bacteria is 6×10^6 CFU/mL per well. The plate was incubated at 37° C. for 18 hours and the image was acquired (FIG. 4B).

[4] = tested on: P. aeruginosa strain PA46; assay: Standard broth microdilution (BMD); details: 6×10^6 CFU/mL per well
Experimental: as §1
The bacterial density in the standard BMD method was 6×10^6 CFU/mL per well before incubation, while the bacterial density in the colorimetric assay before the incubation is given in Table 3.

[5] = real-time Bayesian updated MIC, 4 hour, read-out: MIC (4 hour)
[6] = real-time Bayesian updated MIC, 6 hour, read-out: MIC (6 hour)
[7] = real-time Bayesian updated MIC, 8 hour, read-out: MIC (8 hour)
[8] = real-time Bayesian updated MIC, 10 hour, read-out: MIC (10 hour)
[9] = real-time Bayesian updated MIC, 12 hour, read-out: MIC (12 hour)
[10] = real-time Bayesian updated MIC, 16 hour, read-out: MIC (16 hour)

NCC[C@H](O)C(=O)N[C@@H]1C[C@H](N)[C@@H](O[C@H]2O[C@H](CN)[C@@H](O)[C@H](O)[C@H]2O)[C@H](O)[C@H]1O[C@H]1O[C@H](CO)[C@@H](O)[C@H](N)[C@H]1O [Amikacin, amikacin]
MIC [1, 5]: 1 µg/mL (≈ 1.71 µM)
MIC [1, 6]: 1 µg/mL (≈ 1.71 µM)
MIC [1, 7]: 1 µg/mL (≈ 1.71 µM)
MIC [1, 8]: 2 µg/mL (≈ 3.42 µM)
MIC [1, 9]: 2 µg/mL (≈ 3.42 µM)
MIC [1, 10]: 2 µg/mL (≈ 3.42 µM)

CO/N=C(\C(=O)N[C@@H]1C(=O)N2C(C(=O)[O-])=C(C[N+]3(C)CCCC3)CS[C@H]12)c1csc(N)n1 [Cefepime, cefepime]
MIC ([1]; 4 h, read-out: MIC (4 hour)): ≤ 0.0312 µg/mL
MIC ([1]; 6 h, read-out: MIC (6 hour)): ≤ 0.0312 µg/mL
MIC ([1]; 8 h, read-out: MIC (8 hour)): ≤ 0.0312 µg/mL
MIC ([1]; 10 h, read-out: MIC (10 hour)): ≤ 0.0312 µg/mL
MIC ([1]; 12 h, read-out: MIC (12 hour)): ≤ 0.0312 µg/mL
MIC ([1]; 16 h, read-out: MIC (16 hour)): ≤ 0.0312 µg/mL

CC(C)(O/N=C(\C(=O)N[C@@H]1C(=O)N2C(C(=O)[O-])=C(C[n+]3ccccc3)CS[C@H]12)c1csc(N)n1)C(=O)O [Ceftazidime, ceftazidime]
Susceptibility of Mu890 (colorimetric assay / near IR absorption) [2]: susceptible
Susceptibility of Mu890 (colour change of blood) [2]: sensitive
Susceptibility of Mu890 (standard BMD method) [3]: susceptible
MIC [1, 5]: 0.25 µg/mL (≈ 0.457 µM)
MIC [1, 6]: 0.25 µg/mL (≈ 0.457 µM)
MIC [1, 7]: 0.125 µg/mL (≈ 0.229 µM)
MIC [1, 8]: 0.125 µg/mL (≈ 0.229 µM)
MIC [1, 9]: 0.125 µg/mL (≈ 0.229 µM)
MIC [1, 10]: 0.125 µg/mL (≈ 0.229 µM)

C[C@H]1COc2c(N3CCN(C)CC3)c(F)cc3c(=O)c(C(=O)O)cn1c23 [Levofloxacin, levofloxacin]
MIC [1, 5]: ≤ 0.0312 µg/mL
MIC [1, 6]: ≤ 0.0312 µg/mL
MIC [1, 7]: ≤ 0.0312 µg/mL
MIC [1, 8]: ≤ 0.0312 µg/mL
MIC [1, 9]: ≤ 0.0312 µg/mL
MIC [1, 10]: ≤ 0.0312 µg/mL

C[C@@H](O)[C@H]1C(=O)N2C(C(=O)O)=C(S[C@@H]3CN[C@H](C(=O)N(C)C)C3)[C@H](C)[C@H]12 [Meropenem, meropenem]
Susceptibility of Mu890 (colorimetric assay / near IR absorption) [2]: susceptible
Susceptibility of Mu890 (standard BMD method) [3]: susceptible
MIC [1, 5]: 0.0625 µg/mL (≈ 0.163 µM)
MIC [1, 6]: ≤ 0.0312 µg/mL
MIC [1, 7]: ≤ 0.0312 µg/mL
MIC [1, 8]: ≤ 0.0312 µg/mL
MIC [1, 9]: ≤ 0.0312 µg/mL
MIC [1, 10]: ≤ 0.0312 µg/mL

NC[C@H]1O[C@H](O[C@H]2[C@H](O)[C@@H](O[C@H]3O[C@H](CO)[C@@H](O)[C@H](N)[C@H]3O)[C@H](N)C[C@@H]2N)[C@H](N)C[C@@H]1O [Tobramycin, tobramycin]
Susceptibility of Mu890 (colorimetric assay / near IR absorption) [2]: susceptible
Susceptibility of Mu890 (colour change of blood) [2]: sensitive
Susceptibility of Mu890 (standard BMD method) [3]: susceptible
MIC [1, 5]: 0.5 µg/mL (≈ 1.07 µM)
MIC [1, 6]: 0.5 µg/mL (≈ 1.07 µM)
MIC [1, 7]: 0.5 µg/mL (≈ 1.07 µM)
MIC [1, 8]: 0.5 µg/mL (≈ 1.07 µM)
MIC [1, 9]: 1 µg/mL (≈ 2.14 µM)
MIC [1, 10]: 1 µg/mL (≈ 2.14 µM)

Cc1nnc(SCC2=C(C(=O)O)N3C(=O)[C@@H](NC(=O)Cn4cnnn4)[C@H]3SC2)s1 [cefazolin]
Susceptibility of PA46 (standard BMD method) [4]: resistant

gentamicin
MIC (4 hour) ([1]; real-time Bayesian updated MIC, 4 hour): 0.5 µg/mL
MIC (6 hour) ([1]; real-time Bayesian updated MIC, 6 hour): 0.5 µg/mL
MIC (8 hour) ([1]; real-time Bayesian updated MIC, 8 hour): 0.5 µg/mL
MIC (10 hour) ([1]; real-time Bayesian updated MIC, 10 hour): 1 µg/mL
MIC (12 hour) ([1]; real-time Bayesian updated MIC, 12 hour): 1 µg/mL
MIC (16 hour) ([1]; real-time Bayesian updated MIC, 16 hour): 1 µg/mL
